Patent US10166202B2, “Treatment of hepatic encephalopathy and liver cirrhosis” (Yissum Research Development Company of the Hebrew …, priority 2006, dated 2019)
Entries after “also recorded” stand apart in the source; their conditions may differ.

Assays:
BDL mice [1] = assay: Cognitive function in chronic liver failure induced by bile duct ligation (BDL); format: in vivo; settings: BDL mice relative to sham; cannabidiol 5 mg/kg i.p. daily, evaluated 2 weeks post-surgery
TAA treated mice [2] = assay: Liver function analysis of blood plasma in TAA treated mice; format: in vivo
BDL mice [3] = assay: Motor function in chronic liver failure induced by bile duct ligation (BDL); format: in vivo; settings: BDL mice relative to sham; cannabidiol 5 mg/kg i.p. daily, evaluated 2 weeks post-surgery
TAA treated CB2-KO mice = assay: Blood ALT and AST levels in TAA treated CB2-KO mice; format: in vivo
Description: (ii) Mice. Eight- to 10-week old female Sabra mice (29-32 g), obtained from the animal facility of the Hebrew University, Israel, were assigned at random to different groups of 10 mice per cage and were used in all experiments. All cages contained wood-chip bedding and were placed in a temperature-controlled room at 22° C., on a 12 h light/dark cycle (lights on at 07.00 a.m.). The mice had free access to water 24 h a day. The food provided was Purina chow, the animals were maintained in the animal facility (SPF unit) of the Hebrew University Hadassah Medical School, Jerusalem. CB-2 KO mice were provided by Prof. Zimmer, Institute of Molecular Psychiatry, University of Bonn, Germany.
(xi) Liver function analysis. Ammonia, bilirubin, ALT, AST, GGT and glucose were analyzed using standard analytical methods in the Hadassah Hospital Biochemistry Department, Jerusalem, Israel.

TAA treated mice [4] = settings: mouse, in vivo
dopamine = assay: Brain catecholamine (dopamine) measurement by HPLC-ECD in TAA treated mice; format: in vivo
Description: (vi) Catecholamine measurements. Catecholamines were measured as described previously (Avraham et al, 1996). The assay for dopamine was performed by High Pressure Liquid Chromatography (HPLC) separation and detection using HPLC-electrochemical detection (ECD). Values are presented as concentration (ng/g tissue).

AMPK [5] = assay: Hippocampal AMPK phosphorylation (immunoblot) in TAA-induced liver failure mice; format: in vivo
glial cells = test system: glial cells; set-up: species or system mice; settings: mouse, in vivo
[6] = test system: CB1 and the CB2 receptors; settings: previously known; cited from earlier work
TAA treated mice [7] = assay: Neurological score in TAA treated mice; format: in vivo
AMPK [8] = assay: Hippocampal AMPK phosphorylation (immunoblot) in control mice; format: in vivo; settings: for hippocampal AMPK phosphorylation (activated AMPK): control mice
TAA treated mice [9] = assay: Activity test in TAA treated mice; format: in vivo
TAA treated mice [10] = assay: Eight-arm maze (cognitive function) in TAA treated mice; format: in vivo
IL-1β mRNA = assay: Hippocampal IL-1β mRNA level by RT-PCR in BDL mice; format: in vivo; settings: cannabidiol 5 mg/kg i.p. daily for 3 weeks
malondialdehyde = assay: Oxidative stress (malondialdehyde) in liver tissue of BDL mice; format: in vivo; settings: cannabidiol 5 mg/kg i.p. daily

CCCCC/C=C\C/C=C\C/C=C\C/C=C\CCCC(=O)OC(CO)CO [2-AG, 2-arachidonoylglycerol]
cognitive impairment (eight arm maze AUC) (BDL mice [1]): effectively reversed | alanine transaminase (ALT) level (TAA treated mice [2]; mouse, in vivo): significantly reduced | aspartate aminotransferase (AST) level (TAA treated mice [2]; mouse, in vivo): significantly reduced | influence of the co-administered agent on the other agent's reduction of ALT and AST levels (TAA treated mice [2]; mouse, in vivo): did not counteract the effect of SR141716A or SR144528 | motor impairment (motor activity) (BDL mice [3]): failed to reverse | ALT level (TAA treated CB2-KO mice): modestly but significantly reduced | AST level (TAA treated CB2-KO mice): effective in reducing its level | Inflammation (frequency of cells in the liver) (TAA treated mice [4]): Decreased | Regeneration (frequency of cells in the liver) (TAA treated mice [4]): Increased

NC(=O)c1ncn([C@@H]2O[C@H](CO)[C@@H](O)[C@H]2O)c1N [AICAR, 5-aminoimidazole-4-carboxamide ribonucleoside]
alanine transaminase (ALT) level (TAA treated mice [2]; TAA treated mice, blood): Neither AICAR nor THC ameliorated these markers | aspartate aminotransferase (AST) level (TAA treated mice [2]; TAA treated mice, blood): Neither AICAR nor THC ameliorated these markers | ammonia level (TAA treated mice [2]; TAA treated mice, blood plasma): no effect | bilirubin level (TAA treated mice [2]; TAA treated mice, blood plasma): Neither AICAR nor THC ameliorated these markers | gamma-glutamyltransferase (GGT) level (TAA treated mice [2]; TAA treated mice, blood plasma): Neither AICAR nor THC ameliorated these markers | brain dopamine concentration (dopamine): restored levels to normal | AMPK activation (AMPK [5]; TAA treated mice, AICAR treatment): augmented AMPK activation

CCCCCCC(C)(C)c1cc(OC)c([C@@H]2C=C(CO)[C@@H]3C[C@H]2C3(C)C)c(OC)c1 [HU-308]
alanine transaminase (ALT) level (TAA treated mice [2]; TAA treated mice, blood): significantly reduced | aspartate aminotransferase (AST) level (TAA treated mice [2]; TAA treated mice, blood): significantly reduced | influence of the co-administered agent on the other agent's reduction of ALT and AST levels (TAA treated mice [2]; TAA treated mice, co-administration): did not counteract the effect of SR144528 | Inflammation (frequency of cells in the liver) (TAA treated mice [4]): reduced; also recorded: Decreased | Regeneration (frequency of cells in the liver) (TAA treated mice [4]): Increased | astrogliosis, direction of change (GFAP staining, hippocampus) (glial cells): prevented; also recorded: Decrease (p < 0.001)

Cc1c(C(=O)NN2CCCCC2)nn(-c2ccc(Cl)cc2Cl)c1-c1ccc(Cl)cc1 [SR141716A]
alanine transaminase (ALT) level (TAA treated mice [2]; mouse, in vivo): significantly reduced | aspartate aminotransferase (AST) level (TAA treated mice [2]; mouse, in vivo): significantly reduced | AST level (TAA treated CB2-KO mice): effective in reducing its level | influence of co-administration on the ALT effect of 2-AG (TAA treated CB2-KO mice; 2-AG + SR141716A): blocked the effect of 2-AG | influence of co-administration on the AST effect of 2-AG (TAA treated CB2-KO mice; 2-AG + SR141716A): abolished the effect of 2-AG | Inflammation (frequency of cells in the liver) (TAA treated mice [4]): reduced; also recorded: Decreased | Regeneration (frequency of cells in the liver) (TAA treated mice [4]): Increased | astrogliosis, direction of change (GFAP staining, hippocampus) (glial cells): prevented; also recorded: Decrease (p < 0.001)

CCCCCc1cc(O)c2c(c1)OC(C)(C)[C@@H]1CCC(C)=C[C@@H]21 [THC, (−)-(6aR,10aR)-6,6,9-trimethyl-3-pentyl-6a,7,8,10a-tetrahydro-6H-benzo[c]chromen-1-ol]
alanine transaminase (ALT) level (TAA treated mice [2]; mouse, in vivo): Neither AICAR nor THC ameliorated these markers | ammonia level (TAA treated mice [2]; mouse, in vivo): no effect | aspartate aminotransferase (AST) level (TAA treated mice [2]; mouse, in vivo): Neither AICAR nor THC ameliorated these markers | bilirubin level (TAA treated mice [2]; mouse, in vivo): Neither AICAR nor THC ameliorated these markers | gamma-glutamyltransferase (GGT) level (TAA treated mice [2]; mouse, in vivo): Neither AICAR nor THC ameliorated these markers | affinity to CB1 versus CB2 receptors [6]: about equal affinity | neurological score (TAA treated mice [7]): improved | hippocampal AMPK phosphorylation (activated AMPK) (AMPK [8]; higher concentrations of THC (up to 10 mg/kg)): dose dependent elevation in activated enzyme | hippocampal AMPK phosphorylation (activated AMPK) (AMPK [8]; low levels of THC (less than 0.1 mg/kg)): reduced the level of activated AMPK | quantity of THC required to activate AMPK (AMPK [8]; healthy animals): 10 mg/kg | brain dopamine concentration (dopamine): restored levels to normal | activity performance (TAA treated mice [9]): restored | hippocampal AMPK phosphorylation (activated AMPK) (AMPK [5]; TAA treated mice, 0.01 mg/kg THC): inactivating effect | AMPK activation in brain at end of behavioral studies (AMPK [5]; TAA treated mice, 0.1 mg/kg THC daily for 5 days, 0.1 mg/kg): activates AMPK; also recorded: Amplification of AMPK activation | hippocampal AMPK phosphorylation (activated AMPK) (AMPK [5]; TAA treated mice, 0.1 mg/kg THC, 0.1 mg/kg): AMPK activation was achieved; also recorded: augmented AMPK activation | quantity of THC required to activate AMPK (AMPK [5]; experimental hepatic encephalopathy animals): 0.1 mg/kg | TAA-induced impaired cognitive function (eight arm maze) (TAA treated mice [10]): improved significantly

C=C(C)[C@@H]1CCC(C)=C[C@H]1c1c(O)cc(CCCCC)cc1O [cannabidiol]
cognitive impairment (eight arm maze AUC) (BDL mice [1]): restored; also recorded: reversed | motor impairment (motor activity) (BDL mice [3]): restored; also recorded: reversed | IL-1β mRNA level in the hippocampus (normalized to L19 mRNA) (IL-1β mRNA): restored; also recorded: reversed | oxidative stress in the liver (malondialdehyde) (malondialdehyde): restored; also recorded: reversed

COc1cc(CNC(=O)CCCC/C=C/C(C)C)ccc1O [capsaicin]
alanine transaminase (ALT) level (TAA treated mice [2]; TAA treated mice, blood): significantly reduces | aspartate aminotransferase (AST) level (TAA treated mice [2]; TAA treated mice, blood): significantly reduces | Apoptosis (frequency of cells showing apoptosis/necrosis in the liver) (TAA treated mice [4]): amelioration of TAA-induced apoptosis/necrosis reached statistical significance; also recorded: Decreased | Inflammation (frequency of cells in the liver) (TAA treated mice [4]): Decreased | Regeneration (frequency of cells in the liver) (TAA treated mice [4]): significantly less hepatic regeneration; also recorded: Decreased | neurological score (TAA treated mice [7]): improved; also recorded: significantly improves | activity performance (TAA treated mice [9]): restored; also recorded: significantly improves | astrogliosis, direction of change (GFAP staining, hippocampus) (glial cells): prevented; also recorded: reduced astrogliosis; also recorded: minimal; also recorded: Decrease (p < 0.001) | TAA-induced impaired cognitive function (eight arm maze) (TAA treated mice [10]): improved significantly; also recorded: significantly improves

Oc1cc2c(cc1O)CN(C(=S)NCCc1ccc(Cl)cc1)CCC2 [capsazepine]
influence of the co-administered agent on the other agent's reduction of ALT and AST levels (TAA treated mice [2]; mouse, in vivo): abolishment of the effect of capsaicin

SR144528
alanine transaminase (ALT) level (TAA treated mice [2]; TAA treated mice, blood): significantly reduced | aspartate aminotransferase (AST) level (TAA treated mice [2]; TAA treated mice, blood): significantly reduced | Inflammation (frequency of cells in the liver) (TAA treated mice [4]): non-significant changes | Regeneration (frequency of cells in the liver) (TAA treated mice [4]): Increased
